Structures can show the parent of a compound that is named as a salt.
What was measured:
[1] = 60 mg once per week vs 20 mg per day; maintenance therapy after eight weeks of daily dosing; cited from earlier work
[2] = 120 mg dosed biweekly; cited from earlier work
[3] = interaction of fluoxetine with lactose (reducing sugar) over time; assay type: physicochemical; conditions: room temperature and accelerated stability conditions (heat)
Text: When used in this description, the term “sugar” refers to a sugar other than a reducing sugar. A reducing sugar is a carbohydrate that reduces Fehling's (or Benedict's) or Tollens' reagent. All monosaccharides are reducing sugars as are most disaccharides with the exception of sucrose. One common sugar used frequently as a binding or filling agent is lactose. […] As discussed below, sucrose is a preferred sugar.

SMILES | effectiveness during maintenance therapy [1] | effectiveness for treating recurrent brief depression [2] | interaction with lactose [3]
CNCCC(Oc1ccc(C(F)(F)F)cc1)c1ccccc1 (stereo not drawn) [fluoxetine hydrochloride] | as effective as 20 mg per day |  | 
CNCCC(Oc1ccc(C(F)(F)F)cc1)c1ccccc1 (stereo not drawn) [fluoxetine, N-methyl-3-(p-trifluoromethylphenoxy)-3-phenylpropylamine] |  | ineffective | interacts with lactose both at room temperature and under accelerated stability conditions (heat)

Source: patent USRE39030E1 (Eli Lilly and Company, priority 1997, dated 2006)
